# Entries after “also recorded” stand apart in the source; their conditions may differ.
# Key:
# DU-145 = assay: MTT cell viability assay, DU-145; format: cell-based; conditions: for GI90 / GI50: DU-145, MTT, 96 hours exposure
# Protocol: (§1) All cell lines were obtained from American Type Culture Collection (Rockville, Md.) and maintained in RPMI 1640 media supplemented with 10% fetal bovine serum and 5% penicillin/streptomycin solution. Cells were grown as a monolayer in a humidified incubator (5% CO2) at 37° C. To determine the effect of the compounds on cell proliferation, cells were plated (2500 cells/well) in 96-well cell culture dishes (Corning, Inc. Corning, N.Y.). After a 24 hr attachment period, media was replaced with fresh media containing compounds (0.01 μM-100 μM) or vehicle (95% ethanol). The cells were then allowed to grow in the presence of the drugs for 96 hours. After 96 hours, relative cell viability was assessed using the MTT reagent (3-(4,5-dimethylthiazol-2-yl)-2,5-diphenyltetrazolium bromide) as described in Patel, et al. 2004^43. Experiments were carried out three times with six replicates per dose per experiment (n=18). Results were plotted using the average of each dose over all three experiments and fitted with a best-fit sigmoidal dose response variable slope curve using GraphPad Prism 4.01 (GraphPad Software, Inc.). […] Combination index (CI) was calculated as previously described^44. CI values less than 1 are considered synergistic.
# PC-3 = assay: MTT cell viability assay, PC-3; format: cell-based; conditions: for GI90 / GI50: MTT, 96 hours exposure
# Protocol: Cells were grown as a monolayer in a humidified incubator (5% CO2) at 37° C. To determine the effect of the compounds on cell proliferation, cells were plated (2500 cells/well) in 96-well cell culture dishes (Corning, Inc. Corning, N.Y.). […] The cells were then allowed to grow in the presence of the drugs for 96 hours. […] Experiments were carried out three times with six replicates per dose per experiment (n=18). […] Combination index (CI) was calculated as previously described^44. CI values less than 1 are considered synergistic.
# [1] = mice, s.c. 50 mg/kg, cited from earlier work
# LNCaP = assay: MTT cell viability assay, LNCaP; format: cell-based, human; conditions: 96 hours exposure; for GI50: Homo sapiens
# Protocol: as §1
# PC-3 cells [2] = assay: Absolute [Ca2+]i in PC-3 cells (Fura-2AM); format: cell-based; conditions: for average [Ca2+]i: Fura-2AM, control 36.49 nM
# Protocol: (§2) PC-3 Cells were loaded with either fura-2 or fluo-3 indicator by incubation with 2 μM fura-2/AM or 2 μM fluo-3/AM in RPMI 1640 medium containing 10% fetal bovine serum for >60 min at room temperature. During experiments, the coverslips were mounted in a flow chamber and superfused with oxygenated Locke solution containing (in mM): 10 glucose, 136 NaCl, 5.6 KCl, 1.2 NaH2PO4, 14.3 NaHCO3, 1.2 MgCl2, and 2.2 CaCl2, pH 7.4, at room temperature (22-24° C.).
# (§3) Cells loaded with fura-2 were placed in a perfusion chamber mounted on an inverted microscope (TE200; Nikon, Tokyo, Japan) equipped with a UV-transmitting objective (SuperFluor, 40×, N.A. 1.4, Nikon). Fura-2 was alternately excited by 340 nm and 380 nm light from monochrometers (Deltascan Illumination System, Photonic Technology International (PTI), South Brunswick, N.J.) and fura-2 emission was passed through a 515 nm longpass filter before detection by a cooled CCD camera (Retiga 2000R, Q-Imaging, Burnaby, Canada). For measurement of Ca^2+ transients in individual cells, coverslips with fluo-3 loaded cells were excited by the output of a 100 W mercury arc lamp that passed through a 480 nm bandpass filter (30 nm bandwidth). Fluorescence emission was passed through a 515 nm longpass filter before capture by a cooled CCD camera (Retiga 2000R, Q-Imaging). Image acquisition was performed with QCapture Pro (Q-Imaging) and analysis was performed with ImageJ (U.S. National Institutes of Health, Bethesda, Md., USA).
# Fluo-3 Ca^2+ indicator measurements are reported as the fractional change in fluorescence intensity relative to baseline (ΔF/F0), which was determined as follows. Within a temporal sequence of fluorescence images, a region of interest (ROI) was drawn around each cell to be analyzed. The fluorescence signal from each cell was calculated as the pixel-averaged intensity within each ROI. In these experiments, a slight downward drift in baseline was typically observed, which was principally attributable to photo-bleaching of the indicator. In such cases, the drift was always well fit by a low-amplitude single-exponential decay. The fitted baseline value (F0) at every time point was then used to calculate ΔF/F0. ΔF/F0 values are reported as mean±SE. For fura-2 measurements, [Ca^2+]i was derived using the ratio method of Grynkiewicz et al.^46
# PC-3 cells [3] = assay: Western blot of ERSR related proteins in PC-3 cells; format: cell-based
# Protocol: Protein was isolated, subjected to SDS-PAGE, transferred and imaged as previously described^45. All primary antibodies were purchased from Cell Signaling (Danvers, Mass.). Quantitation of relative protein expression was determined via densitometry using the software ImageQuant 5.0 (Molecular Dynamics) with each protein normalized to its respective loading control. Results represent the average of at least three independent experiments, with representative blots shown.
# [4] = system: androgen-dependent LAPC4 human prostate tumor xenograft; conditions: cited from earlier work
# PC-3 cells [5] = assay: Ca2+ transients in PC-3 cells (Fluo-3AM); format: cell-based; conditions: 20 μM; for transient rise in [Ca2+]i, mean ΔF/Fo: Fluo-3AM
# Protocol: as §2, §3
# Fluo-3 Ca^2+ indicator measurements are reported as the fractional change in fluorescence intensity relative to baseline (ΔF/F0), which was determined as follows. Within a temporal sequence of fluorescence images, a region of interest (ROI) was drawn around each cell to be analyzed. The fluorescence signal from each cell was calculated as the pixel-averaged intensity within each ROI. In these experiments, a slight downward drift in baseline was typically observed, which was principally attributable to photo-bleaching of the indicator. […]
# PC-3 cells [6] = assay: Microarray global gene expression in PC-3 cells; format: cell-based; conditions: 20 μM, 24 hrs
# Protocol: After 24 hour exposure to the agent, total RNA was isolated using the Qiagen RNeasy-Mini Kit following the manufacturer's protocol. Experiments were carried out in duplicate, with triplicate samples (dosed independently on 3 different days) from each experiment pooled for analysis on a single chip. Samples were hybridized to a GeneChip® Human Genome Focus Array (Affymetrix Inc., U.S.A.) and analyzed using an Affymetrix Genechip® Scanner 3000 according to the manufacturer's protocol. Gene ontologies were identified using the online Database for Annotation, Visualization, and Integrated Discovery (DAVID) provided by the National Institute of Allergy and Infectious Diseases and the National Institute of Health. […] Stringent criteria of a minimum EASE/P-Value threshold of 0.001 and a gene count threshold of 5 were used to identify altered gene ontologies.
# [7] = Oral bioavailability in rat; conditions: in vivo
# PC-3 cells [8] = assay: Cell cycle analysis by flow cytometry in synchronized PC-3 cells; format: cell-based; conditions: 20 μM
# Protocol: Cells were synchronized in the G1/G0 phase by maintaining them in 0.2% FBS-containing media for 96 hours. After starvation, media was replaced with normal growth media (10% FBS) containing vehicle (95% ethanol) or 20 μM VN/124-1 for 12, 18, and 24 hours. At each timepoint, cells were fixed in 70% ethanol at −20° C. for at least 24 hours. Fixed cells were then incubated with 1 mL propidium iodide (PI) staining buffer (1 mg/ml PI, 0.1% Triton-X, and 10 μg/ml RNase A dissolved in PBS) for 1 hour at room temperature and DNA content was measured by flow cytometry analysis using a FACSort flow cytometer (Becton Dickinson, San Jose, Calif.); 15,000 events were analyzed for each sample. ModFit LT version 3.1 (Verity Software House Ind., ME) was used to analyze cell cycle distribution.
# PC-3 cells [9] = assay: Real-time PCR (qRT-PCR) of stress response and cell cycle genes in PC-3 cells; format: cell-based; conditions: 20 μM, 24 hr
# Protocol: Cells were treated, lysed and RNA collected and quantified using the same method outlined above. Cells were dosed independently on three separate days (n=3). 1 μg of total RNA was converted to cDNA using ReactionReady™ First Strand cDNA Synthesis kit (SuperArray Bioscience Corp.; Frederick, Md.) following the manufacturer's protocol. 50 ng of template cDNA was then used in subsequent real-time PCR (qRT-PCR) reactions. Template was combined with target gene specific or β-actin control RT^2 PCR Primer Sets, RT^2 Real-Time™ SYBR Green/Rox Master Mix (SuperArray Bioscience Corp.), and ddH2O for a final reaction volume of 25 μL and run on a 7900HT Fast Real-Time PCR system (Applied Biosystems; Foster City, Calif.) following the manufacturer's protocol. Fold changes were calculated using the ΔΔCt method as recommended by the manufacture's protocol.
# [10] = given clinically as the prodrug abiraterone acetate; cited from earlier work
compound,measurement,setting,value
"C[C@]12CCC(=O)C=C1CC[C@@H]1[C@@H]2CC[C@]2(C)C(n3cnc4ccccc43)=CC[C@@H]12 [Compound 6, 17-(1H-benzimidazole-1-yl)androsta-4,16-diene-3-one]",GI90,DU-145,15.53 µM
same,GI90,PC-3,8.07 µM
same,terminal half-lives,[1]; plasma,39.93 min
same,detectability in plasma at 8 hours,[1],neither was detectable
same,peak plasma levels,[1],5.15 ng/mL
same,GI90,LNCaP,13.46 µM
"C[C@]12CC[C@H](O)CC1=CC[C@@H]1[C@@H]2CC[C@]2(C)C(=O)CC[C@@H]12 [DHEA, dihydroandrosterone, reference compound]",GI50,DU-145,> 100 µM
same,growth inhibitory activity against DU-145 cells,DU-145; up to 100 μM,lacked any growth inhibitory activity
same,fold less potent than Compound 5 in inhibiting PC-3 cells,PC-3,~10 fold
same,GI50,PC-3,67.6 µM
same,GI90,PC-3,>100 µM
same,effect on [Ca2+]i,"PC-3 cells [2]; 20 μM DHA, 2 hours",did not have a significant effect
same,effect on the protein markers measured,"PC-3 cells [3]; 20 μM DHA, PC-3",no significant effect
"C[C@]12CC[C@H](O)CC1=CC[C@@H]1[C@@H]2CC[C@]2(C)C(n3cnc4ccccc43)=CC[C@@H]12 [Compound 5, 3β-hydroxy-17-(1H-benzimidazole-1-yl)androsta-5,16-diene]",reduction in the mean final tumor volume compared with controls,"[4]; 50 mg/kg/twice daily, P=0.00065",93.8%
same,effect on growth of LAPC4 tumor xenograft,[4]; Compound 6 at 0.15 mmol/kg twice daily,very effective; also recorded: marked suppression
same,GI90,DU-145,15.95 µM
same,GI50,DU-145; Homo sapiens,7.55 µM
same,GI50,PC-3; Homo sapiens,7.82 µM
same,GI90,PC-3,18.62 µM
same,effect on [Ca2+]i,"PC-3 cells [2]; 1 μM Compound 5, 2 hours",did not have a significant effect
same,average [Ca2+]i,"PC-3 cells [2]; 5 μM, 2 hours",79.13 nM
same,average [Ca2+]i,"PC-3 cells [2]; 10 μM, 2 hours",96.63 nM
same,average [Ca2+]i,"PC-3 cells [2]; 20 μM, 2 hours",79.89 nM
same,detectability in plasma at 8 hours,[1],neither was detectable
same,peak plasma levels,[1],16.82 ng/mL
same,"transient rise in [Ca2+]i, mean ΔF/Fo",PC-3 cells [5]; extracellular calcium present,0.613
same,"transient rise in [Ca2+]i, mean ΔF/Fo",PC-3 cells [5]; extracellular calcium removed,0.967
same,Ca2+ transient after depletion of ER calcium stores,PC-3 cells [5]; pretreatment with SERCA inhibitor CPA,completely abolished
same,down-regulated gene ontologies,PC-3 cells [6],"associated with the cell cycle, especially S-phase (DNA replication)"
same,most enriched up-regulated gene ontologies,PC-3 cells [6],"those relating to stress and metabolism, in particular amino acid metabolism"
same,S100P calcium binding protein gene expression,PC-3 cells [6]; validated by qRT-PCR,most highly up-regulated gene
same,bioavailability,[7],~10%
same,exit from G1 phase of the cell cycle,PC-3 cells [8],prevent the exit from G1 phase
same,CHOP gene expression,PC-3 cells [9],strongly up-regulated
same,activating transcription factor 4 (ATF4) gene expression,PC-3 cells [9],up-regulated
same,asparagines synthetase (ASNS) gene expression,PC-3 cells [9],up-regulated
same,cyclin D1 mRNA levels,PC-3 cells [9],not affected
same,cyclin E2 mRNA,PC-3 cells [9],significantly reduced
same,GI90,LNCaP,31.99 µM
same,GI50,LNCaP,3.15 µM
same,phosphorylation of eIF2α,"PC-3 cells [3]; 20 μM, 6 and 24 hours, PC-3",induced the phosphorylation of eIF2α
same,cyclin D1 protein,"PC-3 cells [3]; PC-3, after 24 hrs",down-regulation of cyclin D1 protein significantly
"C[C@]12CC[C@H](O)CC1=CC[C@@H]1[C@@H]2CC[C@]2(C)C(n3ccnc3)=CC[C@@H]12 [Compound 17, 3β-Hydroxy-17-(1H-imidazol-1-yl)androsta-5,16-diene]",GI90,DU-145,31.62 µM
same,GI50,DU-145; Homo sapiens,5.31 µM
same,GI50,PC-3; Homo sapiens,1.86 µM
same,GI90,PC-3,30.41 µM
same,GI90,LNCaP,36.49 µM
same,GI50,LNCaP,2.47 µM
"C[C@]12CC[C@H](O)CC1=CC[C@@H]1[C@@H]2CC[C@]2(C)C(n3cncn3)=CC[C@@H]12 [Compound 16, 3β-Hydroxy-17-(1H-1,2,4-triazol-1-yl)androsta-5,16-diene]",GI90,DU-145,>100 µM
same,GI50,DU-145; Homo sapiens,11 µM
same,GI50,PC-3; Homo sapiens,2.91 µM
same,GI90,PC-3,>100 µM
same,GI90,LNCaP,>100 µM
same,GI50,LNCaP,1.05 µM
"C[C@]12CC[C@H](O)CC1=CC[C@@H]1[C@@H]2CC[C@]2(C)C(c3cccnc3)=CC[C@@H]12 [Abiraterone, abiraterone, reference compound]",GI90,DU-145,>100 µM
same,GI90,PC-3,>100 µM
same,peak plasma concentrations,[10],below 1 μM
same,GI90,LNCaP,25.12 µM

# Source: patent US9295679B2, “Prodrugs of C-17-heteroaryl steroidal CYP17 inhibitors/antiandrogens: synthesis, in vitro biological activities, pharmacokinetics and antitumor activity” (University of Maryland, Baltimore, priority 2008, dated 2016)
